Drawing on ChEMBL document CHEMBL1145846, “Discovery of allosteric potentiators for the metabotropic glutamate 2 receptor: synthesis and subtype selectivity of N-(4-(2-methoxyphenoxy)phenyl)-N-(2,2,2- trifluoroethylsulfonyl)pyrid-3-ylmethylamine” (J Med Chem, 2003), this text covers EC50 and IC50 for two compounds.

pEC50, pIC50: −log10 of the molar value.

Assay [1] addresses T1, Metabotropic glutamate receptor 2 (Homo sapiens, UniProt Q14416). Nature of the assay: Effective concentration against Metabotropic glutamate receptor 2.
For assay [2], the target named is T1, Metabotropic glutamate receptor 2. Nature of the assay: Ability to displace [3H]LY-341,495 at glutamate-site on Metabotropic glutamate receptor 2; No significant displacement.
The target in assay [3] is Metabotropic glutamate receptor 3 (Homo sapiens, UniProt Q14832). Put plainly: Effective concentration against human cloned Metabotropic glutamate receptor 3.
Chain of Metabotropic glutamate receptor 3 (Q14832 whole entry): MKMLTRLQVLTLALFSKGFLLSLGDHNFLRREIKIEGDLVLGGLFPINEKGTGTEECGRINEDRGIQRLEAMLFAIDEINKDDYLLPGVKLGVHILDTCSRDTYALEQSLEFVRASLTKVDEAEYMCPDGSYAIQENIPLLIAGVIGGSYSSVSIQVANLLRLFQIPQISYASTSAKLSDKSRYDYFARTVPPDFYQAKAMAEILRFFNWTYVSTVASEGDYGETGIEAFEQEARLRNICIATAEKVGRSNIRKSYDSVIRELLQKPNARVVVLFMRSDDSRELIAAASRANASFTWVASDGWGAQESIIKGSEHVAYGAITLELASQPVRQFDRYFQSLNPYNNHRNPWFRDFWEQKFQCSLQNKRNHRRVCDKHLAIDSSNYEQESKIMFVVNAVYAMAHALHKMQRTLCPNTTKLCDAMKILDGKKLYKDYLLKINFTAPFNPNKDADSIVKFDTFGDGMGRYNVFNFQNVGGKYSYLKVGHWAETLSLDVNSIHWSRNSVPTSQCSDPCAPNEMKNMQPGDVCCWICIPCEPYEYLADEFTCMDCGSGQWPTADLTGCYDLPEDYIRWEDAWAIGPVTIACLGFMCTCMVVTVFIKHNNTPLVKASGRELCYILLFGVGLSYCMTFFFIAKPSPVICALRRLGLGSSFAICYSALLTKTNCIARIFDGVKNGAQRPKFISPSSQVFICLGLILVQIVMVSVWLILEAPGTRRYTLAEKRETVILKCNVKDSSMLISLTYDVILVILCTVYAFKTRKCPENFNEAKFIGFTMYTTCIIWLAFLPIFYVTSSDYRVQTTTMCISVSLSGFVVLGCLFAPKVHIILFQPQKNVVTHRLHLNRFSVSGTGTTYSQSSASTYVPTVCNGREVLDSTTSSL

T1 sequence (Q14416 whole entry): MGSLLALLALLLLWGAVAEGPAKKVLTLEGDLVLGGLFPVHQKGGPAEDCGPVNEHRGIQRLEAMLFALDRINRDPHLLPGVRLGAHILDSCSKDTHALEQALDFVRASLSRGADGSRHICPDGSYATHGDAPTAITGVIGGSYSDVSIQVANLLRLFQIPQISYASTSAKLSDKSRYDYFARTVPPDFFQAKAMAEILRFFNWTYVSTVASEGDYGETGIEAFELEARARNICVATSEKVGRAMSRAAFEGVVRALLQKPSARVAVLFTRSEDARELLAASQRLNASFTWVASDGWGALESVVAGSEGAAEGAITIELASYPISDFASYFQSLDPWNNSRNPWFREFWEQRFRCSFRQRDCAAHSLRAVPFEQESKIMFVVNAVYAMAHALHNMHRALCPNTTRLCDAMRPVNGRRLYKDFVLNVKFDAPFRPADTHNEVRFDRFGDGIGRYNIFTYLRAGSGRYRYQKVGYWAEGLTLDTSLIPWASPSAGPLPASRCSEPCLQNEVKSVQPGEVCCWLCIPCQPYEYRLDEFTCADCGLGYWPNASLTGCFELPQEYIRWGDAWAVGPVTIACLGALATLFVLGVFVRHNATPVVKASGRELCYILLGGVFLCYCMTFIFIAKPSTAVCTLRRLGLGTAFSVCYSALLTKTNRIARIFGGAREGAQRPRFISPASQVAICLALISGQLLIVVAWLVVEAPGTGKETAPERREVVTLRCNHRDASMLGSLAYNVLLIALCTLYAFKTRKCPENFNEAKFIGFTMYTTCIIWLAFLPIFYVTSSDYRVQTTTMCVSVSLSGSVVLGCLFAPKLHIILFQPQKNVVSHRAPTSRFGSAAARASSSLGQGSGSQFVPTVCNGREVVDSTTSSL

By pEC50 is commonly meant the negative decadic logarithm of the EC50, by convention in mol/L. A word on the pIC50: it is the negative decadic logarithm of the IC50, by convention in mol/L. A high value points to a small IC50. For the compound `COc1ccccc1Oc1ccc(N(Cc2cccnc2)S(=O)(=O)CC(F)(F)F)cc1`, in assay [1], the pEC50 was 6.57. This compound also had a pIC50 in assay [2] of less than 4.00.

For `CCS(=O)(=O)N(Cc1cccnc1)c1ccc(Oc2ccccc2)cc1`, the pEC50 in assay [1] was 5.82; in assay [3] it was less than 4.90.
